Measurements taken from patent publication US6846492B2, “Use of phenylethylamine derivatives for the antimicrobial treatment of surfaces” (Ciba Specialty Chemicals Corporation, priority 2000, dated 2005).

Assays:
Type in all cases: cell-based
[1] = test system: Aspergillus niger ATCC 6275 (= AN); test: MIC determination in microtiter plates, Aspergillus niger; conditions: Tables 2a/2b, 5 days at 28° C., ≦20% growth, optical density 620 nm, some approximate values
Method: (§1) Determination of the Minimum Inhibitory Concentration (MIC Value) in Microtiter Plates
(§2) Casein/soybean flour peptone bouillon for the preparation of pre-cultures of the test bacteria and yeast.
(§3) Mycological slant agar for the pre-culture of moulds
(§4) The test substances are pre-dissolved in dimethyl sulfoxide (DMSO) and tested in a dilution series of 1:2.
(§5) Bacteria and yeast are cultured overnight in CASO bouillon, the mould is cultured overnight on mycological slant agar, and washed off with 10 ml of 0.85% sodium chloride solution (+0.1% TritonX-100).
(§6) All the test organisms are adjusted to an organism count of 1−5×10^6 CFU/ml using 0.85% sodium chloride solution.
(§7) The test substances are pre-pipetted into microtiter plates in an amount of 8 μl per well.
(§8) Pre-diluted organism suspensions are diluted 1:100 in CASO bouillon (bacteria and yeast) or Sabouraud 2% glucose bouillon (mould) and are added in an amount of 192 μl per well to the test substances.
(§9) The test batches are incubated for 48 hours at 37° C. (bacteria and yeast) or for 5 days at 28° C. (mould).
(§10) After incubation, the growth is evaluated by reference to the turbidity of the test batches (optical density) at 620 nm in a microplate reader.
(§11) One microtiter plate is used for each test organism and substance concentration. All the substances are tested in duplicate.

[2] = test system: Staphylococcus hominis DMS 20328 (= SH); test: MIC determination in microtiter plates, Staphylococcus hominis; conditions: Tables 2a/2b, 48 hours at 37° C., ≦20% growth, optical density 620 nm, tested at 120, 60, 30, 15, 7.5 and 3.5 ppm, some approximate
Method: as §1, §2, §3, §4, §5, §6, §7, §8, §9, §10, §11

[3] = test system: Candida albicans ATCC 10231 (= CA); test: MIC determination in microtiter plates, Candida albicans; conditions: Tables 2a/2b, 48 hours at 37° C., ≦20% growth, optical density 620 nm, some approximate values
Method: as §1, §2, §3, §4, §5, §6, §7, §8, §9, §10, §11

[4] = test system: Pseudomonas aeruginosa CIP A-22 (= PA); test: MIC determination in microtiter plates, Pseudomonas aeruginosa; conditions: Tables 2a/2b, 48 hours at 37° C., ≦20% growth, optical density 620 nm, some approximate values
Method: as §1, §2, §3, §4, §5, §6, §7, §8, §9, §10, §11

[5] = test system: Escherichia coli NCTC 8196 (= EC); test: MIC determination in microtiter plates, Escherichia coli; conditions: Tables 2a/2b, 48 hours at 37° C., ≦20% growth, optical density 620 nm, some approximate values
Method: as §1, §2, §3, §4, §5, §6, §7, §8, §9, §10, §11

Question: With `COc1cccc(COc2ccc(CCN)cc2OCc2cccc(OC)c2)c1` [Compound 4] as the compound, how does the “MIC [ppm] AN” value [1] read?
Answer: 7.5 ppm

Question: And the “MIC [ppm] SH” value [2]?
Answer: 30 ppm

Question: What about the “MIC [ppm] CA” value [3] of the same compound?
Answer: 60 ppm

Question: And the “MIC [ppm] PA” value [4]?
Answer: >120 ppm

Question: And the “MIC [ppm] EC” value [5]?
Answer: 60 ppm

Question: Which “MIC [ppm] AN” value [1] does the source give for `CCCCCCCCCOc1ccc(CCN)cc1OCCCCCCCCC` [Compound 39] here?
Answer: >120 ppm

Question: What about the “MIC [ppm] SH” value [2] of the same compound?
Answer: 60 ppm

Question: And the “MIC [ppm] CA” value [3]?
Answer: >120 ppm

Question: What about the “MIC [ppm] PA” value [4] of the same compound?
Answer: >120 ppm

Question: What about the “MIC [ppm] EC” value [5] of the same compound?
Answer: >120 ppm

Question: With `CC(C)CCOc1ccc(CCN)cc1OCCC(C)C` [Compound 33] as the compound, how does the “MIC [ppm] AN” value [1] read?
Answer: >120 ppm

Question: And the “MIC [ppm] SH” value [2]?
Answer: 30 ppm

Question: What about the “MIC [ppm] CA” value [3] of the same compound?
Answer: 30 ppm

Question: What about the “MIC [ppm] PA” value [4] of the same compound?
Answer: 120 ppm

Question: And the “MIC [ppm] EC” value [5]?
Answer: 15 ppm

Question: `NCCc1cc(OC2CCCC2)c(OC2CCCC2)c(OC2CCCC2)c1` [Compound 92] was tested. Which “MIC [ppm] AN” value [1] did it give?
Answer: 120 ppm

Question: What about the “MIC [ppm] SH” value [2] of the same compound?
Answer: 15 ppm

Question: What about the “MIC [ppm] CA” value [3] of the same compound?
Answer: 60 ppm

Question: And the “MIC [ppm] PA” value [4]?
Answer: >120 ppm

Question: What about the “MIC [ppm] EC” value [5] of the same compound?
Answer: 15 ppm

Question: Which “MIC [ppm] AN” value [1] does the source give for `CCCCCCCCOc1ccc(CCN)cc1OCCCCCCCC` [Compound 38] here?
Answer: >120 ppm

Question: And the “MIC [ppm] SH” value [2]?
Answer: 7.5 ppm

Question: What about the “MIC [ppm] CA” value [3] of the same compound?
Answer: >120 ppm

Question: What about the “MIC [ppm] PA” value [4] of the same compound?
Answer: >120 ppm

Question: And the “MIC [ppm] EC” value [5]?
Answer: >120 ppm

Question: With `CCOC(=O)COc1cc(CCN)cc(OCC(=O)OCC)c1OCC(=O)OCC` [Compound 73] as the compound, how does the “MIC [ppm] AN” value [1] read?
Answer: >120 ppm

Question: What about the “MIC [ppm] SH” value [2] of the same compound?
Answer: >120 ppm

Question: And the “MIC [ppm] CA” value [3]?
Answer: >120 ppm

Question: What about the “MIC [ppm] PA” value [4] of the same compound?
Answer: >120 ppm

Question: And the “MIC [ppm] EC” value [5]?
Answer: >120 ppm

Question: What does the source list for `NCCc1cc(OCc2ccc3ccccc3c2)c(OCc2ccc3ccccc3c2)c(OCc2ccc3ccccc3c2)c1` [Compound 71]?
Answer: MIC [ppm] AN [1]: >120 ppm; MIC [ppm] SH [2]: >120 ppm; MIC [ppm] CA [3]: >120 ppm; MIC [ppm] PA [4]: >120 ppm; MIC [ppm] EC [5]: >120 ppm

Question: `NCCc1ccc(OCc2ccccc2F)c(OCc2ccccc2F)c1` [Compound 15] was tested. Which “MIC [ppm] AN” value [1] did it give?
Answer: >120 ppm

Question: And the “MIC [ppm] SH” value [2]?
Answer: 30 ppm

Question: And the “MIC [ppm] CA” value [3]?
Answer: 30 ppm

Question: And the “MIC [ppm] PA” value [4]?
Answer: 120 ppm

Question: And the “MIC [ppm] EC” value [5]?
Answer: 30 ppm

Question: For `Cc1cccc(COc2ccc(CCN)cc2OCc2cccc(C)c2)c1` [Compound 6], which “MIC [ppm] AN” value [1] is on record?
Answer: 120 ppm

Question: And the “MIC [ppm] SH” value [2]?
Answer: 7.5 ppm

Question: What about the “MIC [ppm] CA” value [3] of the same compound?
Answer: 7.5 ppm

Question: And the “MIC [ppm] PA” value [4]?
Answer: 120 ppm

Question: What about the “MIC [ppm] EC” value [5] of the same compound?
Answer: 15 ppm

Question: What does the source list for `COC(=O)c1ccc(COc2cc(CCN)cc(OCc3ccc(C(=O)OC)cc3)c2OCc2ccc(C(=O)OC)cc2)cc1` [Compound 65]?
Answer: MIC [ppm] AN [1]: >120 ppm; MIC [ppm] SH [2]: 15 ppm; MIC [ppm] CA [3]: 60 ppm; MIC [ppm] PA [4]: >120 ppm; MIC [ppm] EC [5]: >120 ppm

Question: For `CCC(CC)Oc1cc(CCN)cc(OC(CC)CC)c1OC(CC)CC` [Compound 86], which “MIC [ppm] AN” value [1] is on record?
Answer: 30 ppm

Question: What about the “MIC [ppm] SH” value [2] of the same compound?
Answer: 7.5 ppm

Question: And the “MIC [ppm] CA” value [3]?
Answer: 60 ppm

Question: And the “MIC [ppm] PA” value [4]?
Answer: >120 ppm

Question: What about the “MIC [ppm] EC” value [5] of the same compound?
Answer: 15 ppm

Question: For `NCCc1cc(OCc2cccc(F)c2)c(OCc2cccc(F)c2)c(OCc2cccc(F)c2)c1` [Compound 67], which “MIC [ppm] AN” value [1] is on record?
Answer: >120 ppm

Question: And the “MIC [ppm] SH” value [2]?
Answer: 3.75 ppm

Question: What about the “MIC [ppm] CA” value [3] of the same compound?
Answer: 7.5 ppm

Question: And the “MIC [ppm] PA” value [4]?
Answer: >120 ppm

Question: And the “MIC [ppm] EC” value [5]?
Answer: 7.5 ppm

Question: For `N#Cc1ccc(COc2cc(CCN)cc(OCc3ccc(C#N)cc3)c2OCc2ccc(C#N)cc2)cc1` [Compound 64], which “MIC [ppm] AN” value [1] is on record?
Answer: 15 ppm

Question: And the “MIC [ppm] SH” value [2]?
Answer: >120 ppm

Question: What about the “MIC [ppm] CA” value [3] of the same compound?
Answer: 60 ppm

Question: And the “MIC [ppm] PA” value [4]?
Answer: >120 ppm

Question: And the “MIC [ppm] EC” value [5]?
Answer: >120 ppm

Question: Which results are given for `CCCCCCOc1ccc(CCN)cc1OCCCCCC` [Compound 36]?
Answer: MIC [ppm] AN [1]: >120 ppm; MIC [ppm] SH [2]: 3.75 ppm; MIC [ppm] CA [3]: 3.75 ppm; MIC [ppm] PA [4]: >120 ppm; MIC [ppm] EC [5]: 3.75 ppm

Question: How did the “MIC [ppm] AN” value [1] turn out when `C=CCCOc1ccc(CCN)cc1OCCC=C` [Compound 43] was run?
Answer: >120 ppm

Question: And the “MIC [ppm] SH” value [2]?
Answer: >120 ppm

Question: And the “MIC [ppm] CA” value [3]?
Answer: >120 ppm

Question: What about the “MIC [ppm] PA” value [4] of the same compound?
Answer: >120 ppm

Question: What about the “MIC [ppm] EC” value [5] of the same compound?
Answer: >120 ppm

Question: Which results are given for `CCCCOc1ccc(CCN)cc1OCCCC` [Compound 30]?
Answer: MIC [ppm] AN [1]: >120 ppm; MIC [ppm] SH [2]: 120 ppm; MIC [ppm] CA [3]: 120 ppm; MIC [ppm] PA [4]: >120 ppm; MIC [ppm] EC [5]: 120 ppm
